In patent publication US20190350907A1, “METHODS AND PHARMACEUTICAL COMPOSITIONS FOR REDUCING CD95- MEDIATED CELL MOTILITY” (INSERM (INSTITUT NATIONAL DE LA SANTÉ ET DE LA RECHERCHE …, priority 2017, published 2019):
“Also recorded” adds a separate entry of the source.

Assays:
[1] = target: T1, CD95/PLCγ1 interaction (Homo sapiens, UniProt P19174); experiment: Renilla luciferase protein-fragment complementation assay (PCA), CD95-CID/PLCγ1-SH3; assay type: cell-based; details: result in words
T1 construct: The PLCγ1-SH3 domain (aa 790-851) (C); expressed in transfected cells; host or cells: HEK293T
T1 sequence (P19174 790-851): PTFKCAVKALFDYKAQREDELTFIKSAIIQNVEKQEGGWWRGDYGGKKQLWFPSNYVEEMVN
Experimental: FIG. 1. […] A. Schematic representation of the protein-fragment complementation assay used with CD95-CID or -DD fused to F2 and PLCγ1-SH3 or FADD-DD fused to F1 to identify inhibitors from the Prestwick library. The Renilla luciferase enzyme was divided into amino-terminal and carboxy-terminal fragments (yellow domains) and fused to the indicated domains. B. Compounds from the Prestwick library were tested against CD95/PLCγ1 or CD95/FADD PCA. […] Inhibition of CD95/FADD interaction is also assessed.
Light emission indicates refolding of the luciferase and reconstitution of enzyme activity through protein/protein interactions. […] Data represent means±SD of three independent experiments. […] Then, the indicated peptides fused with or without the cell-penetrating domain TAT were incubated at the indicated concentrations for 4 hrs and luminescence was assessed. Data represent means±SD of three independent experiments. […].
HEK293T cells were electroporated with 5 μg of DNA using BTM-830 electroporation generator (BTX Instrument Division, Harvard Apparatus) with 10 μg of DNA. Transfected cells were cultured for 24 hrs prior to protein complementation assay analyses as previously described (17). Briefly, transfected cells (10^6) were washed, resuspended in 100 μl PBS and deposited in OptiPlate-96 (PerkinElmer, Waltham, Mass., USA). Coelenterazine-h (5 μM, Sigma) was injected to each well and renilla luciferase activity was monitored for the first 10 seconds using Infinite200Pro (Tecan, Männedorf, Switzerland).
A peptide consisting of the cell-penetrating domain of TAT fused to CID (TAT-CID) binds the SH3 domain of PLCγ1 and thereby, prevents PLCγ1/CD95 interaction and the subsequent induction of the Ca^2+ response (16). […] Briefly, the Renilla luciferase enzyme was divided into two fragments (F1 and F2 fragments). […] Interaction of CD95 with PLCγ1 or FADD allows the reconstitution of RLuc and subsequent light emission (FIG. 1A). The chemical Prestwick library was screened against these PCAs (FIG. 1B). […] These molecules are designated CID inhibitors or CIDINH.

[2] = system: CD95-mediated Ca2+ signaling pathway in Th17 cells; experiment: CD95-mediated Ca2+ response in Th17 cells; assay type: cell-based, human; details: non-toxic concentrations (1 μM), 1 h pre-treatment, cl-CD95L 100 ng/mL, FuraPE3-AM
Experimental: A. Activated PBLs were loaded with FuraPE3-AM (1 μM) and pre-treated for 1 h with non-toxic concentrations of indicated compounds. T-cells were then stimulated with thapsigargin (1 μM; arrow). Ratio values (R) were normalized to pre-stimulated values (R0) to yield R/R0 values. Data represent means±the SD. B. Th17 cells were sorted from healthy donors and loaded with FuraPE3-AM (1 μM). Th17 cells were pre-treated for 1 h with non-toxic concentrations of ritonavir or diflunisal (1 μM). T-cells were then stimulated with cl-CD95L (100 ng/mL; arrow). Ratio values (R) were normalized to pre-stimulated values (R0) to yield R/R0 values. Data represent means±the SD.
Human PBLs were sorted using flow cytometry cell sorting to isolate Th17 (A) according to their phenotype (CD3+CD4+CXCR5−CCR6+CXCR3−CD45RA−) and Tfh (B) (CD4+CXCR5+ICOS+PD−1+CD45RA−). Cells were pre-incubated with Indicated drugs (1 μM) for 1 h and then stimulated with 100 ng/mL of s-CD95L. [Ca2+]CYT was assessed in Fluo2 LR-AM (3 μM)-loaded cells. Data represent means±the SD of 3 independent experiments.
Peripheral blood mononuclear cells (PBMC) were isolated from buffy-coat by density gradient using lymphocyte separation medium (Eurobio, Les Ulis, France). PBMCs were then subjected to selection using a cocktail of antibody-coated magnetic beads: CCR6^+ CXCR3^−CD4^+ cells (Th17 cells) were sorted with Human Th17 Enrichment kit (STEMCELL Technologies, Grenoble, France). Cell sorting efficiency was evaluated by FACS.
T-cells were loaded with Fura-PE3-AM (1 μM) at room temperature for 30 min in Hank's Balanced Salt Solution (HBSS). After washing, the cells were incubated for 15 min in the absence of Fura-PE3-AM to complete de-esterification of the dye. Cells were placed in a temperature controlled chamber (37° C.) of an inverted epifluorescence microscope (Olympus IX70) equipped with an x40 UApo/340-1.15 W water-immersion objective (Olympus), and fluorescence micrograph images were captured at 510 nm and 12-bit resolution by a fast-scan camera (CoolSNAP fx Monochrome, Photometrics). To minimize UV light exposure, a 4×4 binning function was used. Fura-PE3 was alternately excited at 340 and 380 nm, and the ratios of the resulting images (emission filter at 520 nm) were produced at constant intervals (10 seconds). The Fura-PE3 ratio (Fratio 340/380) images were analyzed offline with Universal Imaging software, including Metafluor and Metamorph. Fratio reflects the intracellular Ca^2+ concentration changes. Each experiment was repeated at least 3 times, and the average of more than 20 single-cell traces per experiment was analyzed.

[3] = system: CD95-mediated Ca2+ signaling pathway in Tfh cells; experiment: CD95-mediated Ca2+ response in Tfh cells; assay type: cell-based, human; details: Example 2; signal described for Th17 and circulating Tfh cells
[4] = system: Tfh-dependent B cell activation; experiment: Tfh-dependent B-cell maturation co-culture (memory B cells with SEB-stimulated Tfh cells, s-CD95L); assay type: cell-based; details: preincubation of Tfh cells

| SMILES | effect on interaction of CD95 with PLCγ1 [1] | effect on CD95-mediated Ca2+ signaling in Th17 cells [2] | effect on sCD95L-induced Ca2+ response [3] | effect on Tfh-dependent B cell activation [4] |
| --- | --- | --- | --- | --- |
| O=C(O)c1cc(-c2ccc(F)cc2F)ccc1O [diflunisal, 5-(2,4-difluorophenyl)-2-hydroxybenzoic acid] | efficiently prevented | abrogated | – | – |
| CC(C)c1nc(CN(C)C(=O)N[C@H](C(=O)N[C@@H](Cc2ccccc2)C[C@H](O)[C@H](Cc2ccccc2)NC(=O)OCc2cncs2)C(C)C)cs1 [ritonavir, 1,3-thiazol-5-ylmethyl N-[(2S,3S,5S)-3-hydroxy-5-[[(2S)-3-methyl-2-[[methyl-[(2-propan-2-yl-1,3-thiazol-4-yl)methyl]carbamoyl]amino]butanoyl]amino]-1,6-diphenylhexan-2-yl]carbamate] | efficiently prevented; also recorded: prevents the PLCγ1 recruitment | abrogated | abrogated | blocks |
